How the values were obtained:
[1] = test system: patients with indolent mastocytosis with handicap bearing the D816V c-Kit mutation; assay: Example 3 a posteriori analysis of new handicap and response criteria; format: in vivo, human
Source text: Of relevance to the invention described, the concepts of a restricted mast cell mediator release associated handicap population and a more stringently defined response criterion have been explored via a posteriori data analysis of a common study population. […] (Note, any discrepancies between directly equivalent data presented in example 2 and example 3 are due to the former being taken from preliminary data analysis and the latter being extended/validated data from that study).
A posteriori data analysis was carried out on a new, restricted mast cell mediator release associated handicap population (wherein patients were classified as having a handicap if after appropriate symptomatic treatments they fulfilled at least one of the following criteria: number of flushes/week ≥7; pruritus score ≥6; number of stools ≥4/day (i.e. diarrhea); micturition frequency ≥8/day (i.e. pollakiuria); Hamilton rating for depression ≥14; Fatigue Impact Scale (FIS) score ≥75; or EORTC quality-of-life questionnaire (QLQ-C30) score ≥60). […]

[2] = test system: patients with severe systemic mastocytosis; assay: Example 5 post-hoc analysis of pooled phase 2 studies; format: in vivo, human
Protocol: A first phase 2 study was conducted in patients with indolent forms of mastocytosis with handicap and not bearing activating point mutations in the phosphotransferase domain of c-Kit such as the main mutation Asp-816-Val. A second phase 2 study was conducted in patients with mastocytosis with handicap and bearing activating point mutations in the phosphotransferase domain of c-Kit such as the main mutation Asp-816-Val.
In one scenario, among those systemic mastocytosis patients from these pooled studies, 28 patients met the criteria for severe handicap at baseline, as defined as having at least one handicap selected from pruritus, flushes, fatigue or depression (defined respectively as: pruritus score ≥9, flushes frequency per week ≥8, FIS ≥75, or Hamilton score ≥19) with a total of 53 severe baseline handicaps reported (note that a given patient may present with more than one handicap). Assessment of treatment response on a handicap was defined as a ≥75% improvement from baseline on at least one handicap among pruritus, flushes, fatigue or depression.
In an alternative scenario, among those systemic mastocytosis patients from these pooled studies, 4 patients met the criteria for severe handicap at baseline, as defined as having handicaps of both pruritus and flushes (defined respectively as: pruritus score ≥9, and flushes frequency per week ≥8) with a total of 8 severe baseline handicaps reported. Assessment of treatment response on a handicap was defined as a ≥75% improvement from baseline on at least one handicap among pruritus or flushes. Overall, at week 24 there was a response rate of 50.0%.

[3] = test system: patients with indolent forms of mastocytosis with handicap; conditions: in vivo
[4] = test system: Ba/F3 cells expressing human or mouse wild-type c-Kit; conditions: stem cell factor-induced proliferation and c-Kit tyrosine phosphorylation; cited from earlier work
[5] = test system: Ba/F3 cells expressing the D816V c-Kit mutation; conditions: proliferation; cited from earlier work
[6] = from W8 to W24, listed as Masitinib

Cc1ccc(NC(=O)c2ccc(CN3CCN(C)CC3)cc2)cc1Nc1nc(-c2cccnc2)cs1 [masitinib, 4-(4-methylpiperazin-1-ylmethyl)-N-[4-methyl-3-(4-pyridin-3ylthiazol-2-ylamino)phenyl]benzamide]
overall response rate ([1]; new handicap thresholds and response criterion, n=11): 52%
overall response rate ([1]; original handicap thresholds and response criterion, n=14): 62%
Overall response ≥75% ([2]; Week 12, at least one severe handicap at baseline (28 patients)): 28.3%
Overall response ≥75% ([2]; Week 12, at least one severe handicap at baseline (28 patients), listed as Masitinib): 25.0%
Overall response ≥75% ([2]; Week 24, at least one severe handicap at baseline (28 patients)): 23.5%
Overall response ≥75% ([2]; Week 24, at least one severe handicap at baseline (28 patients), listed as Masitinib): 23.5%
Overall response ≥75% ([2]; Week 24, severe pruritus and flushes at baseline (4 patients, 8 handicaps)): 50.0
Cumulative response rate (≥75%): FIS only ([2]; from W8 to W24): 8.0%
Cumulative response rate (≥75%): Flushes only ([2]; from W8 to W24): 52.8%
Cumulative response rate (≥75%): Flushes or Pruritus ([2]; from W8 to W24): approximately 40%
Cumulative response rate (≥75%): Hamilton only ([2]; from W8 to W24): 16.7%
Cumulative response rate (≥75%): Hamilton or FIS ([2]; from W8 to W24): ~10%
Cumulative response rate (≥75%): Micturition frequency (pollakiuria) only ([2]; from W8 to W24): 1.8%
Cumulative response rate (≥75%): Overall Response ([2]; from W8 to W24): 26.1%
Cumulative response rate (≥75%): Pruritus only ([2]; from W8 to W24): 28.6%
Cumulative response rate (≥75%): Stool frequency (diarrhea) only ([2]; from W8 to W24): 18.4%
Cumulative response rate (≥75%): Flushes or Pruritus [2, 6]: 38.8%
Cumulative response rate (≥75%): Hamilton or FIS [2, 6]: 10.3%
deaths during the study [3]: No deaths
IC50 [4]: 0.15 ± 0.08 µM
IC50 [5]: 5 ± 2 µM

Source: patent publication US10045978B2 (AB SCIENCE, priority 2010, dated 2018)
